pEC50: −log10 of the molar value. Where a name gives a salt, the structure may show the parent alone. Read-outs that look alike come from different tables or passages of the source. One block for each molecule: values may come before it.
Key:
[1] = biological target: T1, parathyroid cell calcium receptor (Bos taurus, UniProt P35384); experiment: Mobilization of intracellular Ca2+ ([Ca2+]i, fura-2) in bovine parathyroid cells; format: cell-based; parameters: Parathyroid glands were obtained from freshly slaughtered calves (12-15 weeks old); endogenous in cells; host or cells: dissociated primary bovine (calf) parathyroid cells; conditions: for influx of extracellular Ca2+ / potentiation of Ca2+ mobilization / transient increases in [Ca2+]i: verapamil, D-600, TMB-8 100 μM, NPS 384 300 μM; for compounds with any effect on basal [Ca2+]i or increases evoked by extracellular Ca2+: tested at 1 μM
T1 sequence (P35384 20-1085): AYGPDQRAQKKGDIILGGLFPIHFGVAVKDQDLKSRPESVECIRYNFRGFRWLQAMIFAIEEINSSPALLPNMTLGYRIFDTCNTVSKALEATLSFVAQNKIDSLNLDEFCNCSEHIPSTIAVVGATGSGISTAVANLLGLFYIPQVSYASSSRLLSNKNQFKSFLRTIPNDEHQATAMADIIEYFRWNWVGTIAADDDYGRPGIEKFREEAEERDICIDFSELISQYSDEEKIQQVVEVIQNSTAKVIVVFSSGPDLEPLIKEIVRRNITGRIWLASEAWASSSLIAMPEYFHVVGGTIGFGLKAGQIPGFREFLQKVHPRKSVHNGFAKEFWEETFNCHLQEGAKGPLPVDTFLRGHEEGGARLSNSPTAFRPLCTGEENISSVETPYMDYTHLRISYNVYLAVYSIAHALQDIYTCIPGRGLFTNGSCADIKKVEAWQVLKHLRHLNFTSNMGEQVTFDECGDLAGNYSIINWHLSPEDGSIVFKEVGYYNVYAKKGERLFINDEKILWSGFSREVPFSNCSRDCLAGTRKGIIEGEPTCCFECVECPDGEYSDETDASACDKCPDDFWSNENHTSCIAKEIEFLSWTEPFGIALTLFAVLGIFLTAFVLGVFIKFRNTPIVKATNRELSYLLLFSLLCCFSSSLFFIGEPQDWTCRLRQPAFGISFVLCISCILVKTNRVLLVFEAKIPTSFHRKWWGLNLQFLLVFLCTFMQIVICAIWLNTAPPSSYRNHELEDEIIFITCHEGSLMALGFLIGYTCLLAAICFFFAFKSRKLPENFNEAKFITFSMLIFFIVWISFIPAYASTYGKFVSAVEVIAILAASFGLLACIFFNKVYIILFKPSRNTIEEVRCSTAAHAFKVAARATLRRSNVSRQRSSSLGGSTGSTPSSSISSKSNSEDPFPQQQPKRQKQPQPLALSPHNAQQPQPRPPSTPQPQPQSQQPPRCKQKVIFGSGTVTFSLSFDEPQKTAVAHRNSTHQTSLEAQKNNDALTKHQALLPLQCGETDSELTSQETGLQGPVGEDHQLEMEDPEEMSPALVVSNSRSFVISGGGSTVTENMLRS

Sprague-Dawley rats = experiment: Serum/plasma Ca2+, PTH and calcitonin in rats in vivo; parameters: species or system rat; conditions: i.p.
Description: Compounds shown to activate the bovine parathyroid cell calcium receptor in vitro were tested for hypocalcemic activity in vivo. Male Sprague-Dawley rats (200 g) were maintained on a low calcium diet for one week prior to receiving test substance or vehicle as control. Blood was collected from the tail vein three hours after the intra-peritoneal administration of NPS 467. […] Serum total calcium, albumin and phosphate were measured by techniques well known in the art.
Rats (male, Sprague-Dawley, 250-300 g) were fed standard rat chow and fasted overnight prior to the experiment. NPS R-467 was suspended in corn oil, and administered as a single oral dose through a gavage needle. Three hours later a sample of blood was taken from the tail vein and assessed for ionized Ca^2+ levels.

[2] = biological target: bovine parathyroid cell calcium receptor (bovine) (UniProt P35384); experiment: cell-based or functional assay
[3] = 100 to 1000 μM, buffer containing 2 mM CaCl2
[4] = EC50 for mobilization of intracellular Ca2+, bovine parathyroid cells
[5] = Table 8 (arylalkylamine calcimimetics), parathyroid cell calcium receptor in vitro, read-out: EC50

increase in [Ca2+]i ([1]; 300 μM): did not evoke an increase in [Ca^2+]i
effect on [Ca2+]i [1, 3]: prompt fall in [Ca^2+]i
influx of extracellular Ca2+ [1]: blocked influx of extracellular Ca^2+
potentiation of Ca2+ mobilization / transient increases in [Ca2+]i [1]: fails to do so
Molecule: COc1ccc(CC(=O)NCCCCCCCCCCCCN)cc1OC [NPS 384]

pEC50 [1, 4]: > 5.30
pEC50 [1, 5]: 6.11
Molecule: CSc1cccc(C(C)NCCCc2ccccc2)c1 (stereo not drawn) [Compound 8J, N-(3-Phenylpropyl)-1-(3-thiomethylphenyl)ethylamine hydrochloride]

pEC50 [1, 4]: > 5.30
Molecule: C[C@@H](NCCCc1ccccc1Cl)c1cccc2ccccc12 [Compound 12Z, (R)—N-3-(2-Chlorophenyl)-1-propyl-1-(1-naphthyl)ethylamine hydrochloride]

potency in mobilization of intracellular Ca2+ ([1]; racemic mixture): as potent as NPS 467
Molecule: COc1cccc(C(C)NCCC(c2ccccc2)c2ccccc2)c1 (stereo not drawn) [meta-Methoxyfendiline]

compounds with any effect on basal [Ca2+]i or increases evoked by extracellular Ca2+ [1]: None
Molecule: COC(=O)C1=C(C)NC(C)=C([N+](=O)[O-])C1c1ccccc1C(F)(F)F (stereo not drawn) [BAY K 8644]

EC50 for the mobilization of intracellular Ca^2+ (fura-2, bovine parathyroid cells) [2]: 30 nM
Molecule: polyLys (27) (peptide)

cyclic AMP (% of control), isoproterenol-stimulated, 2 ug/ml protamine, +PTx [2]: 89 % of control
cyclic AMP (% of control), isoproterenol-stimulated, 2 ug/ml protamine, control [2]: 20 % of control
potency in mobilizing intracellular Ca^2+ in parathyroid cells (EC50) [2]: 40 nM
Molecule: protamine (peptide)

compounds with any effect on basal [Ca2+]i or increases evoked by extracellular Ca2+ [1]: None
Molecule: CC1=C(C(=O)OC(C)C)[C@H](c2cccc3nonc23)C([N+](=O)[O-])=C(C)N1 [(+) 202-791]

potency relative to NPS 383 [1]: 7 fold
potency relative to pentaethylenehexamine [1]: 25 fold
Molecule: C1CNCCNCCNCCNCCNCCN1 [Hexacyclen, 1,4,7,10,13,16-hexaaza-cyclooctadecane]

activity like verapamil and D-600 ([1]; 100 μM): effective
Molecule: COc1ccc([C@@H]2Sc3ccccc3N(CCN(C)C)C(=O)[C@@H]2OC(C)=O)cc1 [diltiazem]

pEC50 [1, 5]: > 6.00
Molecule: COc1ccc(CCCN[C@H](C)c2cccc(OC)c2)cc1 [Compound 20I]

increase in [Ca2+]i evoked by extracellular Ca2+ ([1]; around 500 μM): abolished
Molecule: NCCCCCCCCCCCCNC(=O)Cc1ccc(O)cc1O [NPS 021]
change in [Ca2+]i by itself ([1]; low [Ca2+] 0.5 mM): does not by itself cause any change in [Ca^2+]i

EC50 for the mobilization of intracellular Ca^2+ (fura-2, bovine parathyroid cells) [2]: 4 nM
Molecule: polyArg (100) (peptide)

EC50 for mobilizing intracellular Ca^2+ [2]: < 100 nM
EC50 for the mobilization of intracellular Ca^2+ (fura-2, bovine parathyroid cells) [2]: 200 nM
Molecule: polyArgTyr (22) (peptide)

effect on [Ca2+]i [1, 3]: prompt fall in [Ca^2+]i
Molecule: NCCCCCCCCCCCCN [NPS 472, 1,12-diaminododecane]

EC50 for the mobilization of intracellular Ca^2+ (fura-2, bovine parathyroid cells) [2]: 1000 nM
Molecule: polyLys (14) (peptide)

compounds with any effect on basal [Ca2+]i or increases evoked by extracellular Ca2+ [1]: None
Molecule: CC1=C(C(=O)OC(C)C)[C@@H](c2cccc3nonc23)C([N+](=O)[O-])=C(C)N1 [(−) 202-791]

Second part, the molecule before the results:

Molecule: COc1ccc(CCN(C)CCCC(C#N)(c2cc(OC)c(OC)c(OC)c2)C(C)C)cc1OC [Compound D-600]
influx of extracellular Ca2+ [1]: blocked the influx of extracellular Ca^2+
potentiation of Ca2+ mobilization / transient increases in [Ca2+]i [1]: potentiated the mobilization of intracellular Ca^2+

Molecule: Philanthotoxin-433
effect on mobilization of intracellular Ca2+ ([1]; tested at 500 μM): without effect

Molecule: COc1cccc(C(C)NCCCc2ccccc2)c1 (racemic) [NPS 467]
time course of hypocalcemic effect (Sprague-Dawley rats): maximal within three hours
serum or whole blood Ca2+ (Sprague-Dawley rats; three hours, low calcium diet): dose-dependent reduction in serum or whole blood Ca^2+
circulating levels of PTH (Sprague-Dawley rats; preliminary studies): dose-dependent reduction in circulating levels of PTH

Molecule: N=C(N)NCCC[C@H](N)C(=O)NCCCNCCCNCCCCCNC(=O)[C@H](CC(N)=O)NC(=O)Cc1ccc(O)cc1O [Argiotoxin-636, argiotoxin 636]
effect on cytosolic Ca2+ responses to subsequent extracellular Ca2+ ([1]; 400 μM): did potentiate cytosolic Ca^2+ responses
increases in [Ca2+]i ([1]; 400 μM): did not elicit increases in [Ca^2+]
effect on [Ca2+]i ([1]; tested at 100 to 300 μM): no effect

Molecule: CCC[C@@H]1C[C@@H](C(=O)N[C@@H]([C@H]2O[C@H](SC)[C@H](O)[C@@H](O)[C@H]2O)[C@@H](C)O)N(C)C1 [Lincomycin, lincomycin]
effect on mobilization of intracellular Ca2+ ([1]; tested at 500 μM): without effect

Molecule: N[C@@H](CCC(=O)O)C(=O)O [glutamate]
response to mGluR agonists ([1]; bovine parathyroid cells or Xenopus oocytes expressing calcium receptors): did not respond

Molecule: NCCCCN [Putrescine]
effect on mobilization of intracellular Ca2+ ([1]; tested at 2 mM): inactive

Molecule: CCN(CC)CCCCCCCCOC(=O)c1cc(OC)c(OC)c(OC)c1 [TMB-8]
influx of extracellular Ca2+ [1]: blocked the influx of extracellular Ca^2+
potentiation of Ca2+ mobilization / transient increases in [Ca2+]i [1]: potentiated the mobilization of intracellular Ca^2+
potentiation of Ca2+ mobilization / transient increases in [Ca2+]i ([1]; listed as TNB-8): potentiated transient increases in [Ca^2+]i

Molecule: CC(C)c1ccc(CN[C@H](C)c2cccc3ccccc23)cc1 [Compound 11X, (R)—N-(4-Isopropylbenzyl)-1-(1-naphthyl)ethylamine hydrochloride]
pEC50 [1, 4]: > 5.30

Molecule: COc1ccc([C@@H](C)N[C@H](C)c2cccc3ccccc23)cc1C [Compound 17P, (R,R)—N-(1-(4-Methoxy-3-methylphenyl)ethyl)-1-(1-naphthyl)ethylamine hydrochloride]
pEC50 [1, 4]: > 5.30
pEC50 [1, 5]: 7.40

Molecule: COc1ccc([C@@H](C)N[C@H](C)c2cccc3ccccc23)cc1 [Compound 14U, (R,R)—N-(1-(4-Methoxyphenyl)ethyl)-1-(1-naphthyl)ethylamine hydrochloride]
pEC50 [1, 4]: > 5.30
pEC50 [1, 5]: 6.89

Molecule: N=C(N)NCCC[C@H](N)C(=O)NCCCNCCCNCCCCCNC(=O)[C@H](CC(N)=O)NC(=O)Cc1c[nH]c2cccc(O)c12 [Argiotoxin-659, argiotoxin 659]
effect on [Ca2+]i ([1]; tested at 100 to 300 μM): evoked transient increases in [Ca^2+]i

Molecule: COc1ccc(CN[C@H](C)c2cccc3ccccc23)cc1Cl [Compound 17M, (R)—N-(3-Chloro-4-methoxybenzyl)-1-(1-naphthyl)ethylamine hydrochloride]
pEC50 [1, 4]: > 5.30
pEC50 [1, 5]: 6.82

Molecule: polyLys (3.8) (peptide)
EC50 for the mobilization of intracellular Ca^2+ (fura-2, bovine parathyroid cells) [2]: 3000 nM

Molecule: NCCCCCN [Cadaverine, cadaverine]
effect on mobilization of intracellular Ca2+ ([1]; tested at 2 mM): inactive

From patent US20130190407A1, “CALCIUM RECEPTOR-ACTIVE MOLECULES” (NPS Pharmaceuticals, Inc., priority 1991, published 2013)
